{"source": "patent US20240108634A1", "about": "“COMPOSITIONS AND METHODS FOR INHIBITING YAP” (The United States Government as represented by the …, priority 2021, published 2024)", "target": "T1, total YAP (Homo sapiens, UniProt P46937)", "T1 construct": "endogenous in cells; host or cells: LN229", "T1 sequence (P46937 whole entry)": "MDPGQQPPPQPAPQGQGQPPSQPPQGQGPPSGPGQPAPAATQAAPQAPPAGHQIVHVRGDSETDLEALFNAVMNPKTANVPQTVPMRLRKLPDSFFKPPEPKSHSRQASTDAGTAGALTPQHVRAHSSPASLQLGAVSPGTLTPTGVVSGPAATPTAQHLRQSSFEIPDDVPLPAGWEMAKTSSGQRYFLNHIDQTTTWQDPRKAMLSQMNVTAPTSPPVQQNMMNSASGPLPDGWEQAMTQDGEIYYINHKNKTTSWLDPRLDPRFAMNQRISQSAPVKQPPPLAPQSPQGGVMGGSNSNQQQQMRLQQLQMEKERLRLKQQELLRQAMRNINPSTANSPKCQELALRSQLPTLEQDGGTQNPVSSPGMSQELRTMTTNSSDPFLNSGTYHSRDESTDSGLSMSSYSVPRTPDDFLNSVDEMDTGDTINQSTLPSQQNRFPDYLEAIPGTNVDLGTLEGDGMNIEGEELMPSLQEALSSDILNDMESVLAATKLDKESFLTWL", "test": "Total YAP ELISA in GBM cells", "type": "cell-based", "description": "Levels of total YAP were determined via ELISA. […] Immunoprecipitates were immunoblotted for the indicated proteins. […] Cells were treated with the indicated concentrations of inhibitor for 18 h and mRNA extracted for real time RT-PCR analyses. Measurements were performed in quadruplicate and means and+S.D. are shown. […] Cells were treated with (+) or without (−) NSC682769 (100 nM, 18 h) and harvested and separated into cytoplasmic and nuclear cellular fractions. Cytoplasmic versus nuclear material was subsequently immunoblotted for the indicated proteins. […] Values in top right corner of panels correspond to the percentage of nuclear localized YAP. Cells were grown on coverslips and treated with NSC682769. Cells were permeabilized and stained using primary antibody to YAP1 and FITC-conjugated secondary. Nuclei were stained with DAPI. Scale bar, 20 μm.\nSurface plasmon resonance (SPR), ELISA, YAP-TEAD reporter activity, cellular fractionation, and immunofluorescence analyses. SPR experiments were carried out on a Nicoya OpenSPR™ instrument using immobilized YAP on a carboxyl-coated sensor. Binding was observed as the change in response units (RU) as analyte was injected at a flow rate of 10 μl/min at 25° C. TraceDrawer™ was used for kinetic analyses. The PathScan® total-YAP ELISA kit was obtained from Cell Signaling and used according to the manufacturer's instructions. YAP-TEAD reporter activity was determined as previously described (Kim N G, Gumbiner B M (2015) J Cell Biol 210: 503-515). HOP-flash contains multiple copies of wild-type TEAD-binding sites with a minimal promoter upstream of a luciferase reporter gene. Luciferase activity was measured via a luciferase assay system (Promega). Nuclear-cytoplasmic fractionation was performed according to Dignam et al. (Dignam J D, et al. (1983) Nucleic Acids Res 11: 1475-1489). Briefly, the buffers used were kept on ice and centrifugations were done at 4° C. with soft braking. After a single wash with PBS, cells were scraped with PBS (containing 1 mM DTT and 1× protease inhibitor) and harvested by centrifugation at 1000×g for 15 min. The cell pellet was gently resuspended with five times the volume of pellet with buffer A (10 mM HEPES, pH 7.9, 1.5 mM MgCl2, 10 mM KCl, 0.5 mM DTT, and 1× protease inhibitor) and incubated on ice for 15 min, followed by homogenization (Wheaton). Cell lysis was monitored by trypan blue staining. The cell lysate was spun at 1000×g for 5 min to collect the pellet as the nuclear fraction and the supernatant as the cytoplasmic fraction. […]", "note": "Like-named read-outs stand apart in the source and are kept apart here."}
{"smiles": "COc1ccc(-c2cc(-c3ccccc3)nc3c2CC(=O)Nc2ccccc2-3)cc1OC", "note": "[NSC682769]", "values": [{"measurement": "DC50", "setting": "GBM39 cells, read-out: IC50, inhibition of total YAP (ELISA)", "result": 5.1, "unit": "nM"}, {"measurement": "DC50", "setting": "LN229 cells, read-out: IC50, inhibition of total YAP (ELISA)", "result": 11.8, "unit": "nM"}, {"measurement": "DC50", "setting": "LN229 cells, read-out: IC50 for YAP (ELISA)", "result": 11.8, "unit": "nM"}, {"measurement": "DC50", "setting": "patient-derived GBM39 cells, read-out: IC50 for YAP (ELISA)", "result": 5.1, "unit": "nM"}]}
